# Assay results from US11191811B2, “Osteocalcin as a treatment for frailty associated with aging” (THE TRUSTEES OF COLUMBIA UNIVERSITY IN THE CITY OF NEW YORK, priority 2014, dated 2021).
# Key:
# [1] = system: C2C12 myoblasts; experiment: GLUT4 translocation to the plasma membrane (flow cytometry); format: cell-based
# Text: Rather, it promoted the translocation of GLUT4 to the plasma membrane of C2C12 myoblasts that express both Gprc6a and Glut4. A similar increase in the accumulation of GLUT4 was observed after exercise in WT but not in Gprc6aMck−/− mice (FIG. 26I). Signaling through GPCRs can favor PI3K activation, leading to Akt phosphorylation, an event that favors the translocation of GLUT4 to the plasma membrane (Lopez-Ilasaca et al., 1997, Science 275:394-397). In agreement with this notion, Akt phosphorylation in muscles of Gprc6Mck−/− mice was decreased compared to muscles of control mice after exercise. […]
# (§1) Glucose and insulin tolerance tests were performed as previously described (Lee et al., 2007, Cell 130:456-469). For in vivo glucose uptake, a bolus of 2-deoxy-d-[^3H]glucose (^3H-2-DG, Perkin Elmer) (10 μCi) was administered before an endurance run. ^3H-2-DG and ^3H-2-DG-6-P content in muscle was determined by liquid scintillation counter and normalized to muscle weight. […] GLUT4 translocation was determined by flow cytometry using an antibody against the extracellular domain of the GLUT4 protein (Santa Cruz, Sc-1606). […] To analyze mitochondrial function, myofibers were treated with three compounds in succession (oligomycin 10 μg/ml, FCCP 200 μM, rotenone 0.2 μM) and OCR was recorded following administration of each of them.
# [2] = system: glycolytic and oxidative muscles of WT mice; experiment: In vivo 3H-2-DG glucose uptake in muscle after exercise; parameters: species or system mouse; settings: older WT mice receiving Ocn (500 ng/g) before running; greater extent in oxidative than glycolytic muscles
# Procedure: FIG. 31. Osteocalcin treatment increases muscle function in young and old WT mice. (A-B) Performance during endurance exercise of 3 month-old WT, Gprc6af/f and Gprc6aMck−/− female mice treated with Ocn (n=6-10 per group). (C) Performance during endurance exercise of 12 and 15 month-old WT female mice treated with Ocn (n=6-10 per group). (D) Western blot analysis of Akt phosphorylation (Ser473) in muscles of WT mice injected with Ocn (500 ng/g) after a single bout of exercise. (E) Western blot analysis of AMPK phosphorylation ([…]) in muscles of WT mice injected with Ocn (500 ng/g) after a single bout of exercise. […]
# as §1
# [3] = system: wild type mice; experiment: Glycemia during subcutaneous infusion; format: in vivo, mouse; settings: 0.3, 1 and 3 ng/hour subcutaneously for 28 days, versus PBS
# Procedure: FIG. 1. Osteocalcin subcutaneous infusion decreases glycemia in wild-type mice. Indicated doses of recombinant osteocalcin or PBS were infused subcutaneously for 28 days in wild-type mice. Blood glucose was measured at indicated days.
# An in vivo experiment was conducted in which the effect of undercarboxylated osteocalcin on glycemia was monitored. Wild type mice were infused with 3 different amounts of mouse recombinant undercarboxylated osteocalcin or placebo (PBS) subcutaneously for 28 days (0.3, 1 and 3 ng/hour). Compared to the control animal infused with placebo, all three doses of undercarboxylated osteocalcin decreased glycemia in vivo over the 28 day period (FIG. 1).
# [4] = system: wild type mice; experiment: Insulin sensitivity test after subcutaneous infusion; format: in vivo, mouse; settings: 0.3 or 3 ng/hour subcutaneously for 18 days, 0-120 minutes after insulin injection
# Procedure: FIG. 3. Osteocalcin subcutaneous infusion increases insulin sensitivity in wild-type mice. Wild-type mice were infused subcutaneously with indicated doses of recombinant osteocalcin or PBS for 18 days before receiving a single injection of insulin. Blood glucose was measured thereafter at indicated times.
# The effect of uncarboxylated osteocalcin on insulin sensitivity was also examined. Wild type mice were infused subcutaneously with 0.3 or 3 ng/hour doses of recombinant osteocalcin or PBS for 18 days before receiving a single injection of insulin. Blood glucose was measured thereafter at the indicated times from 0-120 minutes after injection.
# [5] = system: Leydig cells; experiment: Testosterone production by testis explants or primary Leydig cells; format: cell-based, mouse; settings: recombinant uncarboxylated osteocalcin 0-100 ng/ml of culture medium (FIG. 10)
# Procedure: FIG. 10. Osteocalcin favors male fertility by increasing testosterone production by Leydig cells. (A-B) Testosterone production by testis explants (A) or primary Leydig cells (B) cultured in the presence of supernatants of wild type (WT) or Osteocalcin^−/− osteoblast cultures. (C-D) Testosterone production by testis explants (C) or primary Leydig cells (D) following stimulation with increasing doses of recombinant uncarboxylated osteocalcin (0, 0.3, 1, 3, 10, 100 ng/ml of culture medium). (E) Circulating testosterone levels in WT mice 1 hour, 4 hours, and 8 hours after vehicle or recombinant uncarboxylated osteocalcin (3 ng/g of body weight) injection. (F-G) Comparison between the average litter size (F) and frequency (G) generated by WT, Osteocalcin^−/−, or Esp^−/− male littermate mice crossed with WT females (breeding was tested from 6 to 16 weeks of age). (H-L) Testis size (H), testis weight (I), epididymides weight (J), seminal vesicles weight (K), and sperm count (L) in Osteocalcin^−/− and Esp^−/− compared to WT littermate mice. (M) Circulating steroid sex hormone levels in Osteocalcin^−/− and Esp^−/− compared to WT littermate mice. The analyses were performed on breeder and non-breeder mice. Error bars represent SEM. Student's t test (*) P<0.05, (**) P<0.001.
substance,measurement,setting,value
"uncarboxylated osteocalcin: Recombinant uncarboxylated mouse osteocalcin, bacterially produced, purified on glutathione beads and cleaved from the GST subunit by thrombin (YLGASVPSPDPLEPTREQCELNPACDELSDQYGLKTAYKRIYGITI)",translocation of GLUT4 to the plasma membrane,[1],promoted
same,glucose uptake in muscle,[2],increase
same,glycemia,[3],decreases
same,glycemia,[3]; listed as undercarboxylated osteocalcin,decreased
same,insulin sensitivity,[4],increased
same,insulin sensitivity,[4]; listed as Osteocalcin,increases
same,testosterone production by Leydig cells,[5],increasing
